According to ChEMBL document CHEMBL4138146, “A Schmidt rearrangement-mediated synthesis of novel tetrahydro-benzo[1,4]diazepin-5-ones as potential anticancer and antiprotozoal agents” (Eur J Med Chem, 2017):
In brackets after ≈: the same amount, converted by molar mass.

Legend:
CCRF-CEM = assay: Growth inhibition of human CCRF-CEM cells assessed as cell growth at 10 uM incubated for 48 hrs by sulforhodamine B assay relative to control; format: functional; settings: read-out: Activity
HL-60(TB) = assay: Growth inhibition of human HL-60(TB) cells assessed as cell growth at 10 uM incubated for 48 hrs by sulforhodamine B assay relative to control; format: functional; settings: HL-60, 48 h, read-out: Activity
K562 = assay: Growth inhibition of human K562 cells assessed as cell growth at 10 uM incubated for 48 hrs by sulforhodamine B assay relative to control; format: functional; settings: K562, 48 h, read-out: Activity
MOLT-4 = assay: Growth inhibition of human MOLT4 cells assessed as cell growth at 10 uM incubated for 48 hrs by sulforhodamine B assay relative to control; format: functional; settings: MOLT-4, 48 h, read-out: Activity
SR = assay: Growth inhibition of human SR cells assessed as cell growth at 10 uM incubated for 48 hrs by sulforhodamine B assay relative to control; format: functional; settings: read-out: Activity
A549 = assay: Growth inhibition of human A549/ATCC cells assessed as cell growth at 10 uM incubated for 48 hrs by sulforhodamine B assay relative to control; format: functional; settings: A549, 48 h, read-out: Activity
EKVX = assay: Growth inhibition of human EKVX cells assessed as cell growth at 10 uM incubated for 48 hrs by sulforhodamine B assay relative to control; format: functional; settings: read-out: Activity
NCI-H460 = assay: Growth inhibition of human NCI-H460 cells assessed as cell growth at 10 uM incubated for 48 hrs by sulforhodamine B assay relative to control; format: functional; settings: NCI-H460, 48 h, read-out: Activity
NCI-H522 = assay: Growth inhibition of human NCI-H522 cells assessed as cell growth at 10 uM incubated for 48 hrs by sulforhodamine B assay relative to control; format: functional; settings: NCI-H522, 48 h, read-out: Activity
HCC 2998 = assay: Growth inhibition of human HCC2998 cells assessed as cell growth at 10 uM incubated for 48 hrs by sulforhodamine B assay relative to control; format: functional; settings: HCC 2998, 48 h, read-out: Activity
HCT-116 = assay: Growth inhibition of human HCT116 cells assessed as cell growth at 10 uM incubated for 48 hrs by sulforhodamine B assay relative to control; format: functional; settings: HCT-116, 48 h, read-out: Activity
HCT-15 = assay: Growth inhibition of human HCT15 cells assessed as cell growth at 10 uM incubated for 48 hrs by sulforhodamine B assay relative to control; format: functional; settings: HCT-15, 48 h, read-out: Activity
HT-29 = assay: Growth inhibition of human HT-29 cells assessed as cell growth at 10 uM incubated for 48 hrs by sulforhodamine B assay relative to control; format: functional; settings: HT-29, 48 h, read-out: Activity
KM12 = assay: Growth inhibition of human KM12 cells assessed as cell growth at 10 uM incubated for 48 hrs by sulforhodamine B assay relative to control; format: functional; settings: KM12, 48 h, read-out: Activity
SW-620 = assay: Growth inhibition of human SW620 cells assessed as cell growth at 10 uM incubated for 48 hrs by sulforhodamine B assay relative to control; format: functional; settings: SW-620, 48 h, read-out: Activity
SF-295 = assay: Growth inhibition of human SF295 cells assessed as cell growth at 10 uM incubated for 48 hrs by sulforhodamine B assay relative to control; format: functional; settings: SF-295, 48 h, read-out: Activity
SF-539 = assay: Growth inhibition of human SF539 cells assessed as cell growth at 10 uM incubated for 48 hrs by sulforhodamine B assay relative to control; format: functional; settings: SF-539, 48 h, read-out: Activity
SNB-19 = assay: Growth inhibition of human SNB19 cells assessed as cell growth at 10 uM incubated for 48 hrs by sulforhodamine B assay relative to control; format: functional; settings: SNB-19, 48 h, read-out: Activity
UACC-62 = assay: Growth inhibition of human UACC62 cells assessed as cell growth at 10 uM incubated for 48 hrs by sulforhodamine B assay relative to control; format: functional; settings: UACC-62, 48 h, read-out: Activity
OVCAR-5 = assay: Growth inhibition of human OVCAR5 cells assessed as cell growth at 10 uM incubated for 48 hrs by sulforhodamine B assay relative to control; format: functional; settings: OVCAR-5, 48 h, read-out: Activity
OVCAR-8 = assay: Growth inhibition of human OVCAR8 cells assessed as cell growth at 10 uM incubated for 48 hrs by sulforhodamine B assay relative to control; format: functional; settings: OVCAR-8, 48 h, read-out: Activity
786-0 = assay: Growth inhibition of human 786-0 cells assessed as cell growth at 10 uM incubated for 48 hrs by sulforhodamine B assay relative to control; format: functional; settings: 786-0, 48 h, read-out: Activity
A498 = assay: Growth inhibition of human A498 cells assessed as cell growth at 10 uM incubated for 48 hrs by sulforhodamine B assay relative to control; format: functional; settings: A498, 48 h, read-out: Activity
RXF 393 = assay: Growth inhibition of human RXF393 cells assessed as cell growth at 10 uM incubated for 48 hrs by sulforhodamine B assay relative to control; format: functional; settings: RXF 393, 48 h, read-out: Activity
MCF7 = assay: Growth inhibition of human MCF7 cells assessed as cell growth at 10 uM incubated for 48 hrs by sulforhodamine B assay relative to control; format: functional; settings: MCF7, 48 h, read-out: Activity
U-937 = assay: Cytotoxicity against human U937 cells after 72 hrs by MTT assay; format: functional; settings: U-937, 72 h, read-out: LC50 (the source's name)
Plasmodium falciparum = assay: Antimalarial activity against chloroquine-sensitive Plasmodium falciparum 3D7 incubated for 48 hrs by malstat reagent based LDH release assay; format: functional, organism-based; settings: 3D7, 48 h
Leishmania panamensis = assay: Antileishmanial activity against EpiR/GFP fused Leishmania panamensis MHOM/CO/87/UA140 intracellular amastigotes infected in human […] cells after 72 hrs by flow cytometric method; format: functional, organism-based; settings: MHOM/CO/87/UA140, 72 h
Trypanosoma cruzi = assay: Antitrypanosomal activity against Trypanosoma cruzi Tulahuen amastigote forms infected in human U937 cells after 72 hrs by beta-galactosidase reporter gene assay; format: functional, organism-based; settings: U-937, 72 h

| SMILES | growth at 10 µM (CCRF-CEM) [%] | growth at 10 µM (HL-60(TB)) [%] | growth at 10 µM (K562) [%] | growth at 10 µM (MOLT-4) [%] | growth at 10 µM (A549) [%] | growth at 10 µM (NCI-H460) [%] | growth at 10 µM (NCI-H522) [%] | growth at 10 µM (HCC 2998) [%] | growth at 10 µM (HCT-116) [%] | growth at 10 µM (HT-29) [%] | growth at 10 µM (KM12) [%] | growth at 10 µM (SW-620) [%] | growth at 10 µM (SF-539) [%] | growth at 10 µM (SNB-19) [%] | growth at 10 µM (UACC-62) [%] | growth at 10 µM (OVCAR-5) [%] | growth at 10 µM (OVCAR-8) [%] | growth at 10 µM (786-0) [%] | growth at 10 µM (A498) [%] | growth at 10 µM (RXF 393) [%] | other results |
| --- | --- | --- | --- | --- | --- | --- | --- | --- | --- | --- | --- | --- | --- | --- | --- | --- | --- | --- | --- | --- | --- |
| O=C1NCC(c2cc3ccc4ccccc4c3[nH]c2=O)Nc2ccccc21 (stereo not drawn) | 81.5 | 86.7 | 97.3 | 90.4 | 82.4 | 82.3 | 90.4 | 97.8 | 44.1 | 95 | 99.1 | 91.5 | 99.8 | 89.2 | 95.2 | 101 | 78 | 92.8 | 88.6 | 101 | growth at 10 µM (SR): 56.4%; growth at 10 µM (EKVX): 96.4%; growth at 10 µM (HCT-15): 102%; growth at 10 µM (SF-295): 100%; growth at 10 µM (MCF7): 33.4%; CC50 (U-937): 8.3 µg/mL (≈ 23.4 µM); EC50 (Plasmodium falciparum): > 20 µg/mL; EC50 (Leishmania panamensis): 4.98 µg/mL (≈ 14 µM) |
| O=C1CC(c2cc3ccc4ccccc4c3[nH]c2=O)Nc2ccccc21 (stereo not drawn) | 101 | 100 | 87.2 | 89.5 | 92.4 | 81.1 | 89.2 | 108 | 93 | 99.1 | 94.5 | 96 | 82.2 | 92.5 | 101 | 114 | 110 | 95.6 | 115 | 110 | growth at 10 µM (SR): 11.1%; growth at 10 µM (EKVX): 93.8%; growth at 10 µM (HCT-15): 96.5%; growth at 10 µM (SF-295): 105%; growth at 10 µM (MCF7): 76.2% |
| CCCCn1c(=O)c(C2CNC(=O)c3ccccc3N2)cc2ccc(Cl)cc21 (stereo not drawn) | 103 | 107 | 87.9 | 107 | 92.6 | 87 | 88.8 | 111 | 73 | 98.7 | 98.5 | 100 | 82 | 94.7 | 80.1 | 109 | 99.3 | 107 | 91.3 | 115 | growth at 10 µM (SR): 59.8%; growth at 10 µM (EKVX): 89.8%; growth at 10 µM (HCT-15): 98.5%; growth at 10 µM (SF-295): 104%; growth at 10 µM (MCF7): 89.1% |
| Cc1ccc2[nH]c(=O)c(C3CNC(=O)c4ccccc4N3)cc2c1 (stereo not drawn) | 97.4 | 107 | 111 | 113 | 95.7 | 106 | 93.6 | 107 | 106 | 104 | 102 | 106 | 96.5 | 99.3 | 98.4 | 92.9 | 113 | 103 | 93 | 109 | growth at 10 µM (SR): 133%; growth at 10 µM (EKVX): 102%; growth at 10 µM (HCT-15): 105%; growth at 10 µM (SF-295): 103%; growth at 10 µM (MCF7): 102%; CC50 (U-937): 52.8 µg/mL (≈ 165 µM); EC50 (Plasmodium falciparum): 60.9 µg/mL (≈ 191 µM); EC50 (Trypanosoma cruzi): 46.3 µg/mL (≈ 145 µM); EC50 (Leishmania panamensis): 22.9 µg/mL (≈ 71.8 µM) |
| CCCCOc1nc2ccc(OC)cc2cc1C1CNC(=O)c2ccccc2N1 (stereo not drawn) | 106 | – | – | – | 86.4 | 97.2 | 77.4 | 123 | 85.3 | 100 | 96.6 | 97.6 | 95.3 | 105 | 76.2 | 107 | 102 | 96.6 | 88.5 | 109 | – |
| CCCCn1c(=O)c(C2CNC(=O)c3ccccc3N2)cc2ccccc21 (stereo not drawn) | 110 | 96.7 | 99.3 | 46.4 | 97.1 | 102 | 92.5 | 108 | 94.9 | 103 | 101 | 99.2 | 89.9 | 91 | 88.4 | 96.3 | 114 | 92.4 | 88.7 | 111 | growth at 10 µM (SR): 102%; growth at 10 µM (EKVX): 103%; growth at 10 µM (HCT-15): 101%; growth at 10 µM (SF-295): 96.8%; growth at 10 µM (MCF7): 99.6% |
| O=C1CC(c2cc3ccccc3[nH]c2=O)Nc2ccccc21 (stereo not drawn) | 106 | 98 | 102 | 102 | 95.5 | 105 | 90.7 | 103 | 91.6 | 99.5 | 105 | 104 | 99.4 | 99.4 | 96.3 | 106 | 108 | 93.9 | 79.4 | 99.7 | growth at 10 µM (SR): 95.4%; growth at 10 µM (EKVX): 108%; growth at 10 µM (HCT-15): 97.8%; growth at 10 µM (SF-295): 98.4%; growth at 10 µM (MCF7): 102% |
| O=C1NCC(c2cc3ccccc3[nH]c2=O)Nc2ccccc21 (stereo not drawn) | 110 | 95.7 | 90.2 | 111 | 92.4 | 105 | 88.6 | 104 | 92.6 | 98.3 | 103 | 102 | 96.5 | 102 | 98.3 | 91.2 | 103 | 100 | 104 | 90.7 | growth at 10 µM (SR): 100%; growth at 10 µM (EKVX): 106%; growth at 10 µM (HCT-15): 106%; growth at 10 µM (SF-295): 106%; growth at 10 µM (MCF7): 103%; CC50 (U-937): 36.3 µg/mL (≈ 119 µM); EC50 (Plasmodium falciparum): 64.7 µg/mL (≈ 212 µM); EC50 (Trypanosoma cruzi): 48.8 µg/mL (≈ 160 µM); EC50 (Leishmania panamensis): 110 µg/mL (≈ 361 µM) |
